Assays:
Format in all cases: in vivo
Sphaerotheca fuliginea = experiment: whole plant or invertebrate; details: for % Efficacy: in vivo
Phytophthora infestans = experiment: whole plant or invertebrate
[1] = test system: Erysiphe graminis f.sp. hordei; experiment: Erysiphe test (barley)/protective; details: Blumeria graminis, 168 h, protective, application rate 12.5 g/ha, evaluation 7 days after inoculation, read-out: Efficacy in %
Method: Erysiphe Test (Barley)/Protective
(§1) To produce a suitable preparation of active compound, 1 part by weight of active compound or active compound combination is mixed with the stated amounts of solvent and emulsifier, and the concentrate is diluted with water to the desired concentration.
(§2) To test for protective activity, young plants are sprayed with the preparation of active compound at the stated application rate.
After the spray coating has dried on, the plants are dusted with spores of Erysiphe graminis f.sp. hordei.
(§3) The plants are placed in a greenhouse at a temperature of approximately 20° C. and a relative atmospheric humidity of approximately 80% to promote the development of mildew postules.
(§4) Evaluation is carried out 7 days after the inoculation. 0% means an efficacy which corresponds to that of the control, whereas an efficacy of 100% means that no infection is observed.

Leptosphaeria nodorum = Leptosphaeria nodorum test (wheat)/protective; details: protective, application rate 25 g/ha, evaluation 10 days after inoculation
Method: Leptosphaeria nodorum Test (Wheat)/Protective
To produce a suitable preparation of active compound, 1 part by weight of active compound or active compound combination is mixed with the stated amounts of solvents and emulsifier, and the concentrate is diluted with water to the desired concentration.
(§5) To test for protective activity, young plants are sprayed with the preparation of active compound at the stated application rate. After the spray coating has dried on, the plants are sprayed with a spore suspension of Leptosphaeria nodorum. The plants remain in an incubation cabin at 20° C. and 100% relative atmospheric humidity for 48 hours.
The plants are placed in a greenhouse at a temperature of approximately 15° C. and a relative atmospheric humidity of 80%.
Evaluation is carried out 10 days after the inoculation. 0% means an efficacy which corresponds to that of the control, whereas an efficacy of 100% means that no infection is observed.

[2] = test system: Erysiphe graminis f.sp. tritici; experiment: Erysiphe test (wheat)/protective; details: protective, application rate 6.25 g/ha, evaluation 7 days after inoculation
Method: Erysiphe Test (Wheat)/Protective
as §1, §2
After the spray coating has dried on, the plants are dusted with spores of Erysiphe graminis f.sp. tritici.
as §3, §4

Pyrenophora teres = Pyrenophora teres test (barley)/protective; details: protective, application rate 25 g/ha, evaluation 7 days after inoculation
Method: Pyrenophora teres Test (Barley)/Protective
as §1
as §5, with “conidia” for “spore”, “Pyrenophora teres.” for “Leptosphaeria nodorum.”
The plants are then placed in a greenhouse at a temperature of approximately 20° C. and a relative atmospheric humidity of approximately 80%.
as §4

[3] = Podosphaera fuliginea, in Cucumis sativus, 240 h, read-out: % Efficacy
[4] = Phytophthora infestans, in Solanum lycopersicum, 72 h, read-out: % Efficacy

CO/C=C(/C(=O)OC)c1ccccc1COc1cccc(C(F)(F)F)n1 [picoxystrobin (LXXXIII) (82), picoxystrobin]
pest or weed control at 2 g/ha (Sphaerotheca fuliginea; [3]): 0%

CC1COC(Cn2cncn2)(c2ccc(Oc3ccc(Cl)cc3)cc2Cl)O1 (centres unmarked) [difenoconazole]
pest or weed control at 5 g/ha (Phytophthora infestans; [4]): 5%
pest or weed control at 5 g/ha (Sphaerotheca fuliginea; [3]): 14%

O=C(Nc1ccccc1)N(Cc1ccc(Cl)cc1)C1CCCC1 [pencycuron (XXXVIII) (37), pencycuron]
pest or weed control at 12.5 g/ha [1]: 50%
pest or weed control at 10 g/ha (Phytophthora infestans; [4]): 14%
pest or weed control at 5 g/ha (Sphaerotheca fuliginea; [3]): 30%

O=C1C2CC=CCC2C(=O)N1SC(Cl)(Cl)Cl (centres unmarked) [captan (LV) (54), captan]
pest or weed control at 40 g/ha (Phytophthora infestans; [4]): 0%

CC12CC1(C)C(=O)N(c1cc(Cl)cc(Cl)c1)C2=O (centres unmarked) [procymidone (XLII) (41), procymidone]
pest or weed control at 5 g/ha (Sphaerotheca fuliginea; [3]): 0%

CSC1=N[C@@](C)(c2ccccc2)C(=O)N1Nc1ccccc1 [fenamidone]
pest or weed control at 0.5 g/ha (Phytophthora infestans; [4]): 48%
pest or weed control at 0.5 g/ha (Sphaerotheca fuliginea; [3]): 0%

Cc1noc(C)c1S(=O)(=O)n1c(Cl)nc2cc3c(cc21)OC(F)(F)O3 [Compound of the formula (LXXI) (70), 1-(3,5-dimethylisoxazole-4-sulphonyl)-2-chloro-6,6-difluoro-[1,3]-dioxolo-[4,5f]benzimidazole]
pest or weed control at 12.5 g/ha [1]: 0%
Efficacy in % (Leptosphaeria nodorum): 0%
pest or weed control at 1 g/ha (Sphaerotheca fuliginea; [3]): 0%

mancozeb [mancozeb (XLIII) (42)]
% Efficacy (Phytophthora infestans; in vivo): 23%

S1SSSSSSS1 [sulphur (LXII) (62), sulphur]
pest or weed control at 25 g/ha (Phytophthora infestans; [4]): 0%
pest or weed control at 25 g/ha (Sphaerotheca fuliginea; [3]): 0%

CO/N=C(/C(=O)OC)c1ccccc1COc1ccccc1C [kresoxim-methyl (XVI) (15), kresoxim-methyl]
pest or weed control at 1 g/ha (Phytophthora infestans; [4]): 35%
pest or weed control at 2 g/ha (Sphaerotheca fuliginea; [3]): 0%

COCC(=O)N(c1c(C)cccc1C)C(C)C(=O)OC (centres unmarked) [metalaxyl (XXVII)(26), metalaxyl]
pest or weed control at 1 g/ha (Sphaerotheca fuliginea; [3]): 11%

COc1ccc(C(=CC(=O)N2CCOCC2)c2ccc(Cl)cc2)cc1OC [dimetomorph (XLV) (44), dimetomorph]
pest or weed control at 1 g/ha (Phytophthora infestans; [4]): 23%
pest or weed control at 1 g/ha (Sphaerotheca fuliginea; [3]): 0%

Cc1ccc(C(C)NC(=O)[C@@H](NC(=O)OC(C)C)C(C)C)cc1 (some centres unmarked) [iprovalicarb (LI) (50), iprovalicarb]
pest or weed control at 0.5 g/ha (Phytophthora infestans; [4]): 2%
pest or weed control at 2 g/ha (Sphaerotheca fuliginea; [3]): 0%

CO/N=C(/C(=O)OC)c1ccccc1CO/N=C(\C)c1cccc(C(F)(F)F)c1 [trifloxystrobin (LXXVI) (75), trifloxystrobin]
pest or weed control at 2 g/ha (Sphaerotheca fuliginea; [3]): 43%

N#Cc1c[nH]cc1-c1cccc(Cl)c1Cl [fenpiclonil (XXVIII) (27), 4-(2,3-dichlorophenyl)-1H-pyrrole-3-carbonitrile]
pest or weed control at 2.5 g/ha (Sphaerotheca fuliginea; [3]): 0%

CCCCNC(=O)n1c(NC(=O)OC)nc2ccccc21 [benomyl (LXXXIII) (30), benomyl]
pest or weed control at 5 g/ha (Sphaerotheca fuliginea; [3]): 50%

CO/C=C(/C(=O)OC)c1ccccc1Oc1cc(Oc2ccccc2C#N)ncn1 [azoxystrobin (XVII) (16), azoxystrobin]
pest or weed control at 1 g/ha (Sphaerotheca fuliginea; [3]): 37%

COC(=O)Nc1nc2ccccc2[nH]1 [carbendazim (XXXI) (30), carbendazim]
pest or weed control at 2.5 g/ha (Sphaerotheca fuliginea; [3]): 63%

CCC(C)(NC(=O)c1cc(Cl)c(C)c(Cl)c1)C(=O)CCl (centres unmarked) [zoxamide (LXXIII)(72), zoxamide]
pest or weed control at 1 g/ha (Phytophthora infestans; [4]): 19%
pest or weed control at 1 g/ha (Sphaerotheca fuliginea; [3]): 0%

CCNC(=O)NC(=O)C(C#N)=NOC [cymoxanil (XLVI) (45), cymoxanil]
pest or weed control at 2.5 g/ha (Phytophthora infestans; [4]): 0%
pest or weed control at 5 g/ha (Sphaerotheca fuliginea; [3]): 15%

C=CC1(C)OC(=O)N(c2cc(Cl)cc(Cl)c2)C1=O (centres unmarked) [vinclozolin]
pest or weed control at 5 g/ha (Sphaerotheca fuliginea; [3]): 10%

N=C(N)NCCCCCCCCNCCCCCCCCNC(=N)N [(XIX) (18), N,N′″-(iminodi-8,1-octanediyl)bis-guanidine triacetate]
pest or weed control at 2.5 g/ha (Sphaerotheca fuliginea; [3]): 43%

CCCN(CCOc1c(Cl)cc(Cl)cc1Cl)C(=O)n1ccnc1 [prochloraz (XXI) (20), prochloraz]
pest or weed control at 10 g/ha (Phytophthora infestans; [4]): 0%

O=C1c2ccccc2C(=O)N1SC(Cl)(Cl)Cl [folpet]
pest or weed control at 40 g/ha (Sphaerotheca fuliginea; [3]): 0%

Cc1cc(C)nc(Nc2ccccc2)n1 [pyrimethanil (XLIX)(48), pyrimethanil]
pest or weed control at 10 g/ha (Phytophthora infestans; [4]): 11%
pest or weed control at 5 g/ha (Sphaerotheca fuliginea; [3]): 11%

CC1(C)CCC(Cc2ccc(Cl)cc2)C1(O)Cn1cncn1 (centres unmarked) [metconazole (XII) (11), metconazole]
Efficacy in % [2]: 50%

Cc1cc(C2CC2)nc(Nc2ccccc2)n1 [cyprodinil (XVIII) (17), cyprodinil]
pest or weed control at 12.5 g/ha [1]: 0%
Efficacy in % (Pyrenophora teres): 0%
pest or weed control at 10 g/ha (Sphaerotheca fuliginea; [3]): 22%

CC#Cc1cc(C)nc(Nc2ccccc2)n1 [mepanipyrim (L) (49), mepanipyrim]
pest or weed control at 5 g/ha (Phytophthora infestans; [4]): 0%
pest or weed control at 10 g/ha (Sphaerotheca fuliginea; [3]): 11%

Cc1ccc(-c2c(Cl)nc(C#N)n2S(=O)(=O)N(C)C)cc1 [cyamidazosulfamid (LXX IV)(73), cyamidazosulfamid]
pest or weed control at 0.5 g/ha (Phytophthora infestans; [4]): 45%
pest or weed control at 1 g/ha (Sphaerotheca fuliginea; [3]): 0%

CC(C)NC(=O)N1CC(=O)N(c2cc(Cl)cc(Cl)c2)C1=O [iprodione (LXV) (64), iprodione]
pest or weed control at 5 g/ha (Sphaerotheca fuliginea; [3]): 0%

CCC1(C(=O)NC(C)c2ccc(Cl)cc2)C(C)C1(Cl)Cl (centres unmarked) [N-[1-(4-chloro-phenyl)-ethyl]-2,2-dichloro-1-ethyl-3-methyl-cyclopropane-carboxamide]
pest or weed control at 5 g/ha (Sphaerotheca fuliginea; [3]): 10%

CC(C)(C)C(O)C(Oc1ccc(Cl)cc1)n1cncn1 (centres unmarked) [triadimenol (X) (9), 1-(4-chloro-phenoxy)-3,3-dimethyl-1-(1,2,4-triazol-1-yl)-butan-2-ol]
Efficacy in % (Pyrenophora teres): 30%
pest or weed control at 5 g/ha (Phytophthora infestans; [4]): 0%
pest or weed control at 2.5 g/ha (Sphaerotheca fuliginea; [3]): 0%

CC(C)(C)C(=O)C(Oc1ccc(Cl)cc1)n1cncn1 (centres unmarked) [triadimefon (IX) (8), 1-(4-chloro-phenoxy)-3,3-dimethyl-1-(1,2,4-triazol-1-yl)-butan-2-one]
pest or weed control at 10 g/ha (Sphaerotheca fuliginea; [3]): 0%

dichlofluanid
% Efficacy (Sphaerotheca fuliginea): 0%

CC1(C(=O)Nc2ccc(O)c(Cl)c2Cl)CCCCC1 [fenhexamid (LII) (51), fenhexamid]
pest or weed control at 5 g/ha (Sphaerotheca fuliginea; [3]): 10%

[Cl-].[Cu+2].[Cu+2].[OH-].[OH-].[OH-] [copper oxychloride (LXIV) (63), copper oxychloride]
% Efficacy (Sphaerotheca fuliginea): 11%

O=[N+]([O-])c1cc(C(F)(F)F)c(Cl)c([N+](=O)[O-])c1Nc1ncc(C(F)(F)F)cc1Cl [fluazinam]
pest or weed control at 2.5 g/ha (Phytophthora infestans; [4]): 32%
pest or weed control at 2.5 g/ha (Sphaerotheca fuliginea; [3]): 0%

Cc1ccc(N(SC(F)(Cl)Cl)S(=O)(=O)N(C)C)cc1 [tolylfluanid]
pest or weed control at 40 g/ha (Sphaerotheca fuliginea; [3]): 0%

N#Cc1c[nH]cc1-c1cccc2c1OC(F)(F)O2 [fludioxonil (XXX) (29), fludioxonil]
pest or weed control at 12.5 g/ha [1]: 0%
pest or weed control at 2.5 g/ha (Sphaerotheca fuliginea; [3]): 0%

OC(Cc1ccccc1Cl)(Cn1nc[nH]c1=S)C1(Cl)CC1 (centres unmarked) [Compound of the formula (LXX) (69), 2-(1-chloro-cyclopropyl)-1-(2-chlorophenyl)-3-(5-mercapto-1,2,4-triazol-1-yl)-propan-2-ol]
pest or weed control at 12.5 g/ha [1]: 90%
Efficacy in % (Pyrenophora teres): 70%
pest or weed control at 5 g/ha (Phytophthora infestans; [4]): 0%

N#Cc1c(Cl)c(Cl)c(Cl)c(C#N)c1Cl [tetrachloro-isophthalo-dinitrile]
pest or weed control at 40 g/ha (Sphaerotheca fuliginea; [3]): 0%

CC(C)(C)C(O)(CCc1ccc(Cl)cc1)Cn1cncn1 (centres unmarked) [tebuconazole (IV) (3), tebuconazole]
Efficacy in % (Leptosphaeria nodorum): 50%
Efficacy in % (Pyrenophora teres): 0%
pest or weed control at 2.5 g/ha (Sphaerotheca fuliginea; [3]): 0%

Cc1ccc2nc3sc(=O)sc3nc2c1 [chinomethionat]
pest or weed control at 20 g/ha (Phytophthora infestans; [4]): 0%

O=[N+]([O-])/N=C1\NCCN1Cc1ccc(Cl)nc1 [imidacloprid (XXIV) (23), 1-[(6-chloro-3-pyridinyl)-methyl]-N-nitro-2-imidazolidinimine]
pest or weed control at 12.5 g/ha [1]: 0%

CCCN(CC)CC1COC2(CCC(C(C)(C)C)CC2)O1 (centres unmarked) [spiroxamine (II) (1), 8-t-butyl-2-(N-ethyl-N-n-propyl-amino)-methyl-1,4-dioxaspiro-[5,4]-decane]
pest or weed control at 10 g/ha (Phytophthora infestans; [4]): 0%
pest or weed control at 5 g/ha (Sphaerotheca fuliginea; [3]): 0%

CO/N=C(/C1=NOCCO1)c1ccccc1Oc1ncnc(Oc2ccccc2Cl)c1F [Compound of the formula (LXXII) (71)]
pest or weed control at 12.5 g/ha [1]: 0%
Efficacy in % (Leptosphaeria nodorum): 40%
pest or weed control at 2 g/ha (Sphaerotheca fuliginea; [3]): 43%
